How the values were obtained:
[1] = test system: Mcl-1-/- mouse embryonic fibroblasts (MEF); assay: Cell viability assay for Mcl-1-/- mouse embryonic fibroblasts (CellTiter-Glo); format: cell-based; details: Fibroblast, 1% Fetal Bovine Serum, read-out: MEF Mcl-1-/- KO cell viability results (EC50)
Text: a. Cell Viability Assay for Mcl-1^−/− Mouse Embryonic Fibroblasts (MEF):
Neutralization of both […] and Mcl-1 anti-apoptotic proteins in normal cells is required before a cell undergoes apoptosis via the downstream Bax/Bak pathway See, Chen. L. et al. Mol. Cell (2005) 17, 393-403; Willis, S. N. et al. Genes Dev. (2005) 19, 1294-1305. A compound that only targets Bcl-xL should not affect normal cells, but could kill certain cancer cells if they rely more on Bcl-xL and less on other anti-apoptotic proteins, e.g. Mcl-1, for survival. To mirror this, compounds of the invention were tested for its effect on survival of wild type (wt) mouse embryo fibroblasts (MEFs), Bax/Bak double knockout (BB DKO) MEFs, MEFs that expressed Noxa, and MEFs that expressed Bad. Noxa specifically neutralizes Mcl-1. […] MEFs that express Noxa mirror cancer cell types that are reliant on Bcl-xL for survival and should be much more sensitive to killing by a Bcl-xL targeting compound than MEFs where both Bcl-xL and Mcl-1 are protective.
In this assay, Mcl-1^(−/−) cells were used to confirm that cell apoptosis in the presence of BH3 mimetic small molecules was due to predominantly Bcl-xL inactivation. This inactivation leaves Bax/Bak unconstrained and results in apoptosis. The […]-GLO Luminescent Cell Viability Assay is a homogeneous method of determining the number of viable cells in culture based on quantitation of the ATP present. The amount of ATP correlates with the presence of metabolically active cells such that following cell lysis the amount of ATP present is proportional to the amount of luminescence measured.
Mcl-1^(−/−) mouse embryonic fibroblasts (MEFs) are an adherent cell line prepared in house. MEFs were grown in Iwaki 75 cm^2 tissue culture flasks (cat #3123-075) with FMA media which consists of: • 89% DME Kelso • 10% heat-inactivated foetal calf serum (FCS) (Hyclone cat #SH30396.03) • 1% 10 mM asparagine (Fluka cat #11149) • 275 μl of a 1:2000 dilution of 2-mercaptoethanol is added to the final 500 ml volume of FMA (Sigma cat #M7522; diluted in MT-PBS)
FMA was stored at 4° C. and used at 37° C. MEFs were cultured in FMA media and harvested in MT-PBS and trypsin. For MEF cell viability assays, cells were seeded separately in plates with 10% FCS-FMA and 1% FCS-FMA. […]
Automated Systems that can be used in this assay include: 1) Multidrop—The MULTIDROP 384 (ThermoLabsystems) dispenser was used to dispense cells aseptically into the assay plates: 2) MiniTrak—The […] system from Perkin Elmer was used for titration of the compound plates; 3) Zymark—The ZYMARK SCICLONE ALH3000 System with 100 nL pintool head was used for compound addition to the cells; 4) EnVision—The ENVISION plate reader was used to measure the viability via the detection of the luminescence. […]

[2] = molecular target: T1, Bcl-xL (Homo sapiens, UniProt Q07817); assay: Alpha Screen Bcl-xL binding assay, competition with Bim26-mer; details: values listed in the order of Table 1; read-out: Alphascreen results (IC50)
T1 construct: made in house
T1 sequence (Q07817 whole entry, species assumed): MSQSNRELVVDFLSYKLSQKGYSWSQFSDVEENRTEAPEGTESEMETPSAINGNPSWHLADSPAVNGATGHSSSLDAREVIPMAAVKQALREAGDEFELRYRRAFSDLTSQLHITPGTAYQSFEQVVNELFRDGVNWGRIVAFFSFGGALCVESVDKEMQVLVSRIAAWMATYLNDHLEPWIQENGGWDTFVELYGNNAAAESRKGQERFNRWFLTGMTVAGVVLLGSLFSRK
Method: The measurement of competition of compounds of the invention with Bim26-mer for a Bcl-2 family protein binding site using an Alpha Screen Bcl-xL Binding Assay:
The BH3 proteins ALPHASCREEN™ assay was used to identify active small molecules Bcl-2 family protein screen. e.g., Bcl-xL, hmMcl-1 screen. To determine an accurate estimation of the IC50, the compounds were routinely tested at starting concentrations, 100 μM and/or 1 μM and serially titrated 3 fold over 11 dilutions.
The beads come in close proximity when the protein and the peptides interact. Donor beads contain a photosensitiser that converts oxygen to an excited form of O2 at an excitation of 680 nm. Energy is transformed from the singlet oxygen and reacts with chemiluminescers on the acceptor bead, resulting in light emission at 520-620 nm. […] With this information, the IC50 of each compound was calculated
GST-Bcl-xL, GST-hmMcl-1 and biotinylated GST proteins were prepared in-house and were stored as stock solutions at −80° C. The biotinylated-Bak, and biotinylated-Bim peptides were purchased from Auspep and were stored as 500 μM stock solutions in 100% DMSO at −80° C. The ALPHASCREEN™ GST (Glutathione-S-Transferase) Detection Kit was obtained from Perkin Elmer Lifesciences (Cat #6760603R). The Proxiplates, white 384 well flat-Bottom plates were purchased from Interpath Services, Melbourne (Cat #784075). The seals to cover the plates were purchased from Proscience. Melbourne (Cat#784075). DMSO was purchased from AnalaR. The 384 deep well plates and the Polypropylene 50 μL, V bottom polypropylene compound plates were purchased from Matrical.
Compounds of the invention were prepared as 10 mM stocks with 100% DMSO on the day prior to performing the assay. […] To achieve a final compound concentration of 1 μM, in a separate matrical plate, 28 μL of 100% DMSO and 2 μL of 10 mM compound was added to a well, mixed well. 2 μL of this solution was taken and added to 38 μL of 100% DMSO. 20 μL of this solution was added to the test matrical plate. Several control compounds were included in the test plates. For the control wells 15 μL 100% DMSO only was added to the appropriate wells of each plate. The compound plates were then serially diluted 2 fold using the MiniTrak. Once titrations were complete, the compound plate was immediately covered with a foil seal to prevent evaporation.
The assay and bead buffers were prepared fresh. Each titrated compound plate was assayed in duplicate. The following volumes were sufficient to run 12 Proxiplates (4 assay plates run in duplicate in each of Bclxl, hmMcl and counter assays)
Protein and Peptide Preparation; and Assay Performance • 1. The assay and bead buffers were used to prepare the acceptor and donor solutions. ALPHASCREEN™ beads are light sensitive and therefore prepared in a darkened room. 2.5 μL of beads were added per 1 mL of buffer. • 2. The volume of protein or peptide to add was calculated using the following formula:
[formula] • C1=Final Concentration of protein/peptide • C2=Stock Concentration of protein/peptide • V1=Total Volume of Acceptor/Donor Solution • V2=Volume of stock protein/Peptide to add to Acceptor/Donor solution • 3. The assay components were prepared as separate Acceptor and Donor Solutions. The Acceptor Solution contained Acceptor heads and target protein, while the Donor Solution contained Donor beads and biotinylated peptide.
• 4. After the solutions were prepared, they were left to incubate for 30 minutes at room temperature to allow the beads to bind to the protein and the peptide. • 5. 50 μL of Bcl-xL solution, 50 μL of hmMcl-1 solution and 50 µL of biotinylated-GST were added into separate deep wells on an assay plate. A control […]. Assay/Bead buffer was added separate well plates (no protein). • 6.

[3] = molecular target: T1, Bcl-xL; assay: TR-FRET binding assay, competition with F-Bak for Bcl-xL binding site; details: GST-Bcl-xL, F-Bak probe
Method: The measurement of competition of compounds of the invention with F-Bak for a Bcl-2 family protein (Bcl-xL) binding site using a Time Resolved Fluorescence Resonance Energy Transfer (TR-FRET) Binding Assay:
(§1) Test compounds were serially diluted in DMSO starting at 50 μM (2× starting concentration; 10% DMSO) and 10 μL transferred into a 384-well plate.
(§2) The samples are then mixed on a shaker for 1 minute then incubated for an additional 2 hours at room temperature. For each assay plate, a probe/antibody and protein/antibody/probe mixture were included as a negative and a positive control, respectively. Fluorescence was measured on the Envision (Perkin Elmer) using a 340/35 nm excitation filter and 520/525 (F-Bak) and 495/510 nm (Tb-labeled anti-his antibody) emission filters. Dissociation constants (Ki) were determined using Wang's equation (see, Wang, Z. X. An exact mathematical expression for describing competitive binding of two different ligands to a protein molecule. FEBS Lett. 1995 360:111-114). The TR-FRET assay can be performed in the presence of varying concentrations of human serum (HS) or fetal bovine serum (FBS).

[4] = molecular target: T2, Bcl-2 (Homo sapiens, UniProt P10415); assay: TR-FRET binding assay, competition with F-Bak for Bcl-2 binding site; details: GST-Bcl-2, F-Bak probe
T2 construct: made in house
T2 sequence (P10415 whole entry, species assumed): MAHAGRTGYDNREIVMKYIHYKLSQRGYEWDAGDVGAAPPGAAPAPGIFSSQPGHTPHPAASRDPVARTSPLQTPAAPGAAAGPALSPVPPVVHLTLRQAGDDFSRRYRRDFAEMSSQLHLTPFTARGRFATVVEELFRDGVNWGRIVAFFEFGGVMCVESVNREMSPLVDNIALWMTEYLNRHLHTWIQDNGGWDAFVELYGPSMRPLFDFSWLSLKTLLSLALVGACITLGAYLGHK
Method: as §1, §2
For comparison, the measurement of the competition of compounds of the invention for other Bcl-2 family protein binding sites (e.g., Bcl-2, Mcl-1) using the TR-FRET binding assay was accomplish by substituting GST-Bcl-xL in the TR-FRET assay with other GST-labeled protein, e.g. GST-Bcl-2, GST-Mcl-1 prepared in-house.
For comparison, data (Ki in micromolar) from the measurement of the competition by certain compounds of the invention (i.e., compounds 1, 28, 38, 63, 71, 75, 80, 81, 92 and 94 in Table 1) with F-Bak for the Bcl-2 binding site using the TR-FRET binding assay are, 1.2, 0.15, 0.01, 0.018, 0.50, 0.272, 0.167, 0.66, 0.23 and 0.000003 respectively.

## CC(C)Oc1ccc(-c2sc(-c3ccc4c(c3)N(C(=O)Nc3nc5ccccc5s3)CCC4)nc2C(=O)O)cc1 [Example 79, 2-(1-(benzo[d]thiazol-2-ylcarbamoyl)-1,2,3,4-tetrahydroquinolin-7-yl)-5-(4-isopropoxyphenyl)thiazole-4-carboxylic acid]
[1]
  EC50: 210 nM
[2]
  IC50: 6 nM

## O=C(O)c1nc(-c2ccc3c(c2)N(C(=O)Nc2nc4ccccc4s2)CCC3)sc1CCCOc1ccc(-n2ncc3cncnc32)cc1 [Example 94, 5-(3-(4-(1H-pyrazolo[3,4-d]pyrimidin-1-yl)phenoxy)propyl)-2-(1-(benzo[d]thiazol-2-ylcarbamoyl)-1,2,3,4-tetrahydroquinolin-7-yl)thiazole-4-carboxylic acid]
[3]
  Ki: 0.003 nM
[4]
  Ki: 0.003 nM
[2]
  IC50: 0.5 nM

## O=C(O)c1nc(-c2ccc3c(c2)N(C(=O)Nc2nc4ccccc4s2)CCC3)sc1Oc1ccccc1 [Example 63, 2-(1-(benzo[d]thiazol-2-ylcarbamoyl)-1,2,3,4-tetrahydroquinolin-7-yl)-5-phenoxythiazole-4-carboxylic acid]
[3]
  Ki: 12 nM
[4]
  Ki: 18 nM
[2]
  IC50: 50 nM

## CC(C)Oc1ccc(-c2sc(-c3ccc4c(c3)N(C(=O)Nc3nc5ccccc5s3)CCC4)nc2C(=O)O)cc1F [Example 80, 2-(1-(benzo[d]thiazol-2-ylcarbamoyl)-1,2,3,4-tetrahydroquinolin-7-yl)-5-(3-fluoro-4-isopropoxyphenyl)thiazole-4-carboxylic acid]
[3]
  Ki: 0.7 nM
[4]
  Ki: 167 nM
[2]
  IC50: 6 nM

## O=C(O)c1ccc(-c2sc(-c3ccc4c(c3)N(C(=O)Nc3nc5ccccc5s3)CCO4)nc2C(=O)O)cc1 [Example 68, 2-(4-(benzo[d]thiazol-2-ylcarbamoyl)-3,4-dihydro-2H-benzo[b][1,4]oxazin-6-yl)-5-(4-carboxyphenyl)thiazole-4-carboxylic acid]
[3]
  Ki: 470 nM
[2]
  IC50: 540 nM

## COc1ccc(-c2sc(-c3ccc4c(c3)N(C(=O)Nc3nc5ccccc5s3)CCC4)nc2C(=O)O)cc1 [Example 71, 2-(1-(benzo[d]thiazol-2-ylcarbamoyl)-1,2,3,4-tetrahydroquinolin-7-yl)-5-(4-methoxyphenyl)thiazole-4-carboxylic acid]
[3]
  Ki: 7 nM
[4]
  Ki: 500 nM
[2]
  IC50: 40 nM

## O=C(O)c1csc(-c2ccc3c(c2)N(C(=O)Nc2nc4ccccc4s2)CCC3)n1 [Example 1]
[3]
  Ki: 197 nM
[4]
  Ki: 1200 nM
[2]
  IC50: 360 nM

## CCOc1ccc(-c2sc(-c3ccc4c(c3)N(C(=O)Nc3nc5ccccc5s3)CCC4)nc2C(=O)O)cc1 [Example 75, 2-(1-(benzo[d]thiazol-2-ylcarbamoyl)-1,2,3,4-tetrahydroquinolin-7-yl)-5-(4-ethoxyphenyl)thiazole-4-carboxylic acid]
[3]
  Ki: 1 nM
[4]
  Ki: 272 nM
[2]
  IC50: 7 nM

## COc1ccc(-c2sc(-c3ccc4c(c3)N(C(=O)Nc3nc5ccccc5s3)CCC4)nc2C(=O)N(C)C)cc1 [Example 81, 2-(1-(benzo[d]thiazol-2-ylcarbamoyl)-1,2,3,4-tetrahydroquinolin-7-yl)-5-(4-methoxyphenyl)-N,N-dimethylthiazole-4-carboxamide]
[3]
  Ki: 660 nM
[4]
  Ki: 660 nM
[2]
  IC50: 380 nM

Reference: patent US9067928B2 (Genentech, Inc., priority 2008, dated 2015)
